What was measured:
[1] = compound: NC(=O)CCCCC1CCSS1 [lipoamide]; test: thermal stability z-score vs DMSO; higher = more thermally stabilized by treatment; conditions: HeLa, lipoamide concentration 100 µM
Procedure: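 Cellular thermal proteome profiling in HeLa cells. Cells were treated with 100 µM lipoamide for 1 h, with or without 1 mM arsenate for a further 1 h, then heated to ten temperatures (37-66.3 °C), and soluble protein was quantified by TMT mass spectrometry relative to 0.1% DMSO controls. The thermal stability score (sum of log2 fold changes minus the abundance score) was transformed to a z-score; mean of n = 3 experiments.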

[2] = compound: O=[As]([O-])(O)O.[K+] [potassium arsenate]; test: as above; conditions: HeLa; arsenate concentration 1 mM
Procedure: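 Cellular thermal proteome profiling in HeLa cells treated with 1 mM arsenate for 1 h (DMSO pretreatment), heated to ten temperatures (37-66.3 °C). Soluble protein was quantified by TMT mass spectrometry relative to DMSO controls; the thermal stability score was transformed to a z-score; mean of n = 3 experiments.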

[3] = arsenate co-treatment: 1 mM arsenate 1 h
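Further: each temperature applied for 3 min, abundance score taken as mean log2 fold change at the two lowest temperatures, z-score obtained by mean subtraction and division by SD.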

Chain of UniProt Q14689 (Q14689 whole entry): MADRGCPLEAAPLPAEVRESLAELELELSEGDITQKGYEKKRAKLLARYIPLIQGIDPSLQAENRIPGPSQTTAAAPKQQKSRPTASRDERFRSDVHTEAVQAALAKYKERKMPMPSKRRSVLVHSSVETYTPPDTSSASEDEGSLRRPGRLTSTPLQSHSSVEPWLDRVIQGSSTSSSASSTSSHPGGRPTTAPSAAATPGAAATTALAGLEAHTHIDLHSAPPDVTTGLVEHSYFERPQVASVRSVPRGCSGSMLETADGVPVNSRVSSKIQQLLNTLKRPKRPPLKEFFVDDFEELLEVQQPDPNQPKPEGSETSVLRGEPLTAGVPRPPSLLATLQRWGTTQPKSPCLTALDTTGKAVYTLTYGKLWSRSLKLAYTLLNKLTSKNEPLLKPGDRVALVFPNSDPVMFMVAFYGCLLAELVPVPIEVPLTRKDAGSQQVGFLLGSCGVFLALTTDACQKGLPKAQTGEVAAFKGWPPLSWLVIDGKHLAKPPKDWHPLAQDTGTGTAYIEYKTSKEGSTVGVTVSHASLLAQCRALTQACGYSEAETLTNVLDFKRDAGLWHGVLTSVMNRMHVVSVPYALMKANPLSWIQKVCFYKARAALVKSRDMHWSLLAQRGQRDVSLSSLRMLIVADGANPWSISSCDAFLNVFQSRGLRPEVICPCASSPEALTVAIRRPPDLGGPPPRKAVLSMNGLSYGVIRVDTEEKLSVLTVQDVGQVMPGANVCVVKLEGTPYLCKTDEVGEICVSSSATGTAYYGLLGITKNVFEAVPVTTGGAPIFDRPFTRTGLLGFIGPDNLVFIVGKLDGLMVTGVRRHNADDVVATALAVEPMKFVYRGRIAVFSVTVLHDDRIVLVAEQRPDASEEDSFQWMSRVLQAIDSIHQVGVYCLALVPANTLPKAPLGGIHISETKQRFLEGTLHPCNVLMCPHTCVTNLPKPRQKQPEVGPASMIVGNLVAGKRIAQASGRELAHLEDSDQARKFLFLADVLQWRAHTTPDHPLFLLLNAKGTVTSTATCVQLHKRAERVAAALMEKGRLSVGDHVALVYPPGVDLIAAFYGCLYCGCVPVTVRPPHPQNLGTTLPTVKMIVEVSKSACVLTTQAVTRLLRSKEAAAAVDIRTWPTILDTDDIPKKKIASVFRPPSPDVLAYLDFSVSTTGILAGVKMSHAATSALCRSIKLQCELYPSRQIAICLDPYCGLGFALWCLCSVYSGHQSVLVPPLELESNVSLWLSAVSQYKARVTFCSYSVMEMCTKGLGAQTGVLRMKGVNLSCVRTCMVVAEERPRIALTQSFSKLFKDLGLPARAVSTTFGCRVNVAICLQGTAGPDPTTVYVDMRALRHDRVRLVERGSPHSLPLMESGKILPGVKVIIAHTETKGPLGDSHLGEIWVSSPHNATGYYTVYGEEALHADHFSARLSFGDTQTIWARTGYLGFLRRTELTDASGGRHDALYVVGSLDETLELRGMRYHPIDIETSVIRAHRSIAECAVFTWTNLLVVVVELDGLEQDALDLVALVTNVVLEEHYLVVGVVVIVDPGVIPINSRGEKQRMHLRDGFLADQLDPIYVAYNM
Chain of UniProt Q8TF46 (Q8TF46 whole entry): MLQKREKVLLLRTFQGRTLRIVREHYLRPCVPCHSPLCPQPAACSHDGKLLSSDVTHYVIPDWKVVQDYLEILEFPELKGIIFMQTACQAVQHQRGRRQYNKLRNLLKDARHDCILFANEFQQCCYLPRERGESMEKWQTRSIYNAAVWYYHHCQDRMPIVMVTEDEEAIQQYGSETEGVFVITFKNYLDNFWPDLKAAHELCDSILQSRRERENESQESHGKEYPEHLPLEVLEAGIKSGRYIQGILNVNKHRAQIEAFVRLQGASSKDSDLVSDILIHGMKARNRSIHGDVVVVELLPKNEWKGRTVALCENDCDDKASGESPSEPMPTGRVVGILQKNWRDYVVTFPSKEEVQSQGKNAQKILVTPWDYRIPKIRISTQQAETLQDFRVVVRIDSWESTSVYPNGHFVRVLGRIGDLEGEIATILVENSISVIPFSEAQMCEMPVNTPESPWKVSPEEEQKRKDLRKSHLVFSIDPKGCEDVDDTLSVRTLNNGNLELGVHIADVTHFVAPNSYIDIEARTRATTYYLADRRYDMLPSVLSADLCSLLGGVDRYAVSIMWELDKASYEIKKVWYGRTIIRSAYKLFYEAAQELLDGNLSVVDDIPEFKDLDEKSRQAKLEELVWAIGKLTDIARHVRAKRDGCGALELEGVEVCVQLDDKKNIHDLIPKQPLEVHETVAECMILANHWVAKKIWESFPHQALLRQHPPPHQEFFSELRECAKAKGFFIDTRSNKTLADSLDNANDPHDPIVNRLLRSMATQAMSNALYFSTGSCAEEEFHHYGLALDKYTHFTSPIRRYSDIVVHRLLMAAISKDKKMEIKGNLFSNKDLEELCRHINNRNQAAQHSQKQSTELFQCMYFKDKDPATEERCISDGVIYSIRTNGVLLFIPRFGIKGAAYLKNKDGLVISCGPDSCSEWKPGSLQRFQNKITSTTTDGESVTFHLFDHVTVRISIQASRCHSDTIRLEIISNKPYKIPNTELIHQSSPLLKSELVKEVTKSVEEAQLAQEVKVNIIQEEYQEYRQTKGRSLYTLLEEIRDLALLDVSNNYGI
Chain of UniProt Q9Y2H0 (Q9Y2H0 whole entry): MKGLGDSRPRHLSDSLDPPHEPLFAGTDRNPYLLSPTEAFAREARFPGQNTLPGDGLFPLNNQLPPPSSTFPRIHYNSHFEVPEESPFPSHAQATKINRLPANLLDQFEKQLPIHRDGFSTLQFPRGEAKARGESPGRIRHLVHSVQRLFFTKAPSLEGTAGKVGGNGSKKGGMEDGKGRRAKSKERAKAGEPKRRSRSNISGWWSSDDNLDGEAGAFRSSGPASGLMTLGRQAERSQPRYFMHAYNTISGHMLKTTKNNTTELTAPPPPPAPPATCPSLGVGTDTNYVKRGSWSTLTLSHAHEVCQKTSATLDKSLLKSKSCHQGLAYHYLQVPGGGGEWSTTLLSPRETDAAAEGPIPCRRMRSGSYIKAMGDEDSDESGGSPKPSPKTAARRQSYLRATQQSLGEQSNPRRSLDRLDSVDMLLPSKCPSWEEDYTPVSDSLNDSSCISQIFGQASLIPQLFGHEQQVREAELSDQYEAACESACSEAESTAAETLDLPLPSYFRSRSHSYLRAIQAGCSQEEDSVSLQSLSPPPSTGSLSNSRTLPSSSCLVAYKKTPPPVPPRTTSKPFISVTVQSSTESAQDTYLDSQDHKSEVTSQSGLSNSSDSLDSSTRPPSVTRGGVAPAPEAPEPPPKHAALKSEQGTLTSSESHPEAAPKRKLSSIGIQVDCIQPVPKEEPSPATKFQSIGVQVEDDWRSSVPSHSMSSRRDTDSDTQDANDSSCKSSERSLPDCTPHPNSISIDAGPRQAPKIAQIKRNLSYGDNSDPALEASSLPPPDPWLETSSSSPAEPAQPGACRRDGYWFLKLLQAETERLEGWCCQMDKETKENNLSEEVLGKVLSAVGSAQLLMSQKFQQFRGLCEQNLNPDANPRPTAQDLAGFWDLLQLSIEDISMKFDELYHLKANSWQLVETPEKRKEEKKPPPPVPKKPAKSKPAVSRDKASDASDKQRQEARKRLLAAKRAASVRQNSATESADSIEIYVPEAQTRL
Chain of UniProt Q9NVR5 (Q9NVR5 whole entry): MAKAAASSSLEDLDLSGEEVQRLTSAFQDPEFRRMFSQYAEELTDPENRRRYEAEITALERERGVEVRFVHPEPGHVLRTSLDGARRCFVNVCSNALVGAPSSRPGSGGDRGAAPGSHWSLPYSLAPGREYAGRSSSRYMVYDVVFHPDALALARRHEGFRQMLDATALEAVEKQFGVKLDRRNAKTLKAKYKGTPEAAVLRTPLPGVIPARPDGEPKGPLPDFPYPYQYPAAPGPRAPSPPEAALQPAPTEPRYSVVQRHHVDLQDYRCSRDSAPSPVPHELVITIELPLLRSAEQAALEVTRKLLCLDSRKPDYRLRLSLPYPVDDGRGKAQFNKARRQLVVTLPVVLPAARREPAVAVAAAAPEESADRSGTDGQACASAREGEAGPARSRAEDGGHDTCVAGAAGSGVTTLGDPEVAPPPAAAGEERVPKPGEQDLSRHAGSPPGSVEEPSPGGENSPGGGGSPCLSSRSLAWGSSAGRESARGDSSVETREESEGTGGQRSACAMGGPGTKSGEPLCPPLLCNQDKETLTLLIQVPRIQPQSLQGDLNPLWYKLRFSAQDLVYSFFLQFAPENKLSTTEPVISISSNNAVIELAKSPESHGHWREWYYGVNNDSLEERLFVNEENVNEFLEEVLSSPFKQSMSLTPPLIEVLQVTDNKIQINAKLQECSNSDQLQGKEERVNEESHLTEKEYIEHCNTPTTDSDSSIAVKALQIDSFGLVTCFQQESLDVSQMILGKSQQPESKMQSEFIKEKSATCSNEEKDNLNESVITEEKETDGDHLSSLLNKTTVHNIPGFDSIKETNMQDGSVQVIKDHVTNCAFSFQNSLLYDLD
Chain of UniProt P10515 (P10515 whole entry): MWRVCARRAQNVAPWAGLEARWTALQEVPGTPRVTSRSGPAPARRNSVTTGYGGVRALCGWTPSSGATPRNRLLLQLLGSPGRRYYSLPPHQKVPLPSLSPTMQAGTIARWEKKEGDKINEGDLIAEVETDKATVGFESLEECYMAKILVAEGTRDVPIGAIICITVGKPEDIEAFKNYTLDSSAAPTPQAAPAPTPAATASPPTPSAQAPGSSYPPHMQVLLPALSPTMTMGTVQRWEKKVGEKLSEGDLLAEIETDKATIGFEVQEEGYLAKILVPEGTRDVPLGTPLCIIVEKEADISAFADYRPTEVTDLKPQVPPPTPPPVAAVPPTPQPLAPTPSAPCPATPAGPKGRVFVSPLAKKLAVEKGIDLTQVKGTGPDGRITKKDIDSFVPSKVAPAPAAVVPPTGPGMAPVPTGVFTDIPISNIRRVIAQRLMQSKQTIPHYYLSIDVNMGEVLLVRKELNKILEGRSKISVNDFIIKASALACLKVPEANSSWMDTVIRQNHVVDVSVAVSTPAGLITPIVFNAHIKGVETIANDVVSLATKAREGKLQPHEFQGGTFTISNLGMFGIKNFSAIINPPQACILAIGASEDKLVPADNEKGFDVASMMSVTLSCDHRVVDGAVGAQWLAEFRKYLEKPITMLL

Target | thermal stability z-score [1, 3] | thermal stability z-score ([1]; arsenate co-treatment: none) | thermal stability z-score [2]
DHX36 (UniProt Q9H2U1) | -0.0301 | -0.0965 | -0.0639
DHX37 (UniProt Q8IY37) | 0.321 | 0.303 | 0.359
DHX38 (UniProt Q92620) | -0.164 | 0.0335 | -0.406
DHX40 (UniProt Q8IX18) | 0.111 | 0.0273 | -0.0831
DHX57 (UniProt Q6P158) | -0.125 | -0.0979 | -0.286
DIABLO (UniProt Q9NR28) | 0.979 | 0.495 | 0.154
DIAPH1 (UniProt O60610) | 0.466 | 0.801 | -0.58
DIAPH3 (UniProt Q9NSV4) | -1.4 | -0.761 | -0.0767
DICER1 (UniProt Q9UPY3) | 0.656 | 0.00487 | -0.398
DIDO1 (UniProt Q9BTC0) | 0.835 | 0.516 | -1.37
DIEXF (UniProt Q68CQ4) | 0.1 | 0.0895 | 0.134
DIMT1 (UniProt Q9UNQ2) | 0.142 | 0.0753 | -0.418
DIP2A (UniProt Q14689) | 0.82 | -0.0406 | -0.205
DIP2B (UniProt Q9P265) | 0.206 | 0.147 | -0.222
DIS3 (UniProt Q9Y2L1) | -0.727 | -0.422 | -1.52
DIS3L2 (UniProt Q8IYB7) | -0.225 | 0.566 | 0.155
DIS3L (UniProt Q8TF46) | 0.0339 | 0.0425 | 0.0192
DISP1 (UniProt Q96F81) | 0.342 | 0.512 | -1.07
DKC1 (UniProt O60832) | 0.735 | 0.39 | 0.437
DLAT (UniProt P10515) | -2.72 | -0.583 | -11.2
DLD (UniProt P09622) | 0.662 | 1.04 | -0.681
DLG1 (UniProt Q12959) | 0.111 | -0.207 | -0.34
DLG3 (UniProt Q92796) | -0.116 | 0.02 | -0.395
DLG5 (UniProt Q8TDM6) | 0.227 | -0.0304 | 0.0056
DLGAP4 (UniProt Q9Y2H0) | -0.0201 | -0.367 | -2.62
DLGAP5 (UniProt Q15398) | -0.352 | -0.378 | -0.0873
DLST (UniProt P36957) | 0.396 | 0.38 | -5.05
DMAP1 (UniProt Q9NPF5) | -0.551 | -0.38 | -0.644

Target | thermal stability z-score [1, 3] | thermal stability z-score ([1]; arsenate co-treatment: none) | thermal stability z-score [2]
DMD (UniProt P11532) | 0.0264 | -0.124 | -0.176
DMWD (UniProt Q09019) | 0.459 | -0.167 | 0.407
DMXL1 (UniProt Q9Y485) | 0.485 | 0.00841 | -0.0177
DMXL2 (UniProt Q8TDJ6) | -0.191 | -0.105 | 0.00642
DNA2 (UniProt P51530) | -0.0519 | -0.0211 | -0.131
DNAAF2 (UniProt Q9NVR5) | -0.15 | -0.168 | -0.268
DNAAF5 (UniProt Q86Y56) | -0.979 | 0.336 | 0.875
DNAH1 (UniProt Q9P2D7) | -0.00768 | 0.171 | 0.0212
DNAJA1 (UniProt P31689) | -1.05 | -0.818 | -0.452
DNAJA2 (UniProt O60884) | -0.922 | -1.05 | -0.26
DNAJA3 (UniProt Q96EY1) | -1.12 | -0.564 | 0.258
DNAJB1 (UniProt P25685) | 0.448 | 0.397 | 0.294
DNAJB2 (UniProt P25686) | 0.422 | 0.0161 | 0.142
DNAJB4 (UniProt Q9UDY4) | -0.368 | -0.146 | -0.708
DNAJB6 (UniProt O75190) | 1.19 | 0.248 | 0.728
DNAJB11 (UniProt Q9UBS4) | -2.65 | -2.51 | 0.319
DNAJB12 (UniProt Q9NXW2) | -0.267 | -0.124 | 0.182
DNAJB14 (UniProt Q8TBM8) | 0.0418 | 0.157 | -0.17
DNAJC1 (UniProt Q96KC8) | -0.436 | -0.516 | -0.725
DNAJC2 (UniProt Q99543) | -0.0501 | 0.0208 | 1.09
DNAJC3 (UniProt Q13217) | -4.01 | -3.61 | 0.823
DNAJC6 (UniProt O75061) | 0.617 | 0.625 | 0.413
DNAJC7 (UniProt Q99615) | -0.214 | 0.475 | -0.656
DNAJC8 (UniProt O75937) | 0.653 | 0.49 | 1.25
DNAJC9 (UniProt Q8WXX5) | 0.604 | 0.566 | -2.09
DNAJC10 (UniProt Q8IXB1) | -3.47 | -2.86 | -0.253
DNAJC11 (UniProt Q9NVH1) | 0.0767 | -0.132 | 0.285
